# Legend:
# [1] = system: binding of CD300f to plastic-immobilized SM; experiment: Peptide inhibition of CD300f-Ig binding to plastic-immobilized sphingomyelin (epitope mapping); parameters: species or system human; conditions: co-incubation of peptide with CD300f-Ig, FIG. 1
# Text: FIG. 1, related to Example 1, is a bar diagram showing the binding capacity of the indicated peptides to sphingomyelin (SM). They y-axis represents absorbance (%). “C” represents the control; “1” represents Peptide 1 of SEQ ID NO: 12; “2” represents Peptide 2 of SEQ ID NO: 13; “3” represents Peptide 3 of SEQ ID NO: 14; “4” represents Peptide 4 of SEQ ID NO: 15; “5” represents Peptide 5 of SEQ ID NO: 5; “6” represents Peptide 6 of SEQ ID NO: 6; “7” represents Peptide 7 of SEQ ID NO: 7; “8” represents Peptide 8 of SEQ ID NO: 16; and “9” represents Peptide 9 of SEQ ID NO: 17; and “10” represents Peptide 10 of SEQ ID NO: 18; FIG. 2, related to Example 1, is a bar diagram showing the binding capacity of the indicated peptides to sphingomyelin (SM). They y-axis represents absorbance (%). “A” represents the control; “B” represents DMSO; “C” represents Peptide 1; “D” represents Peptide 2; “E” represents Peptide 7; “F” represents Peptide 7 C5S (SEQ ID NO: 8); “G” represents Peptide 7 W3A (SEQ ID NO: 9); and “H” represents Peptide 7 R6G (SEQ ID NO: 10). In an attempt to identify the sites of interaction of CD300f with Sphingomyelin (SM), the inventors performed a peptide-based epitope mapping approach. 24 overlapping, 20mer peptides were designed with a 15-aa overlap between successive peptides covering the Ig and stem extracellular sequences of human CD300f. It was analyzed whether any of those 24 peptides could inhibit binding of CD300f to plastic-immobilized SM. Only three of them, peptides 5 (SEQ ID NO:5), 6 (SEQ ID NO:6) and 7 (SEQ ID NO:7), which contained the sequence […] Moreover, different amino acids of the sequence […] NO: 2) were mutated to try to map the interaction with the phospholipid.
# HCT116 cells = experiment: Internalization of 5-DTAF labelled polymeric micelles by flow cytometry; type: cell-based; conditions: 1 mg/ml on 5-DTAF labelled Pluronic F127 micelles, vs non conjugated micelles, FIGS. 4 and 5
# Text: FIG. 4, related to Example 2, is a diagram showing the cell internalization rates of polymeric micelles conjugated to the indicated peptides in HCT116 cells. The y-axis represents fluorescence intensity (F.U.) (Mean±SEM) and the x-axis represents the time (min).
# FIG. 5, related to Example 2, is a diagram showing the cell internalization rates of polymeric micelles conjugated to the indicated peptides in HCT116 cells. The y-axis represents fluorescence intensity (F.U.) (Mean±SEM) and the x-axis represents the time (min).
# Polymeric micelles (PM) were prepared using the film hydration technique. Briefly, the polymers were individually weighted and dissolved in a mixture of methanol:ethanol (1:1). […]
# Flow cytometry was used to verify the internalization of 5-DTAF-fluorescently labeled PM in MCF-7 and HCT116 cell lines. For the quantitative fluorescence-activated cell sorting (FACS), 2×10^4 cells were seeded in complete medium in 96 well plates for 24 hours to allow adhesion. […] The plate was analyzed in a cytometer Fortessa (BD Biosciences, USA). Data was analyzed with FCS Express 4 Flow research edition software (De Novo Software, Los Angeles, USA). […] For each sample, at least 10000 individual cells were collected and the mean fluorescence intensity was evaluated. […]
inhibition of binding of CD300f to sphingomyelin (SM) [1],Molecule,internalization of peptide- or protein-functionalized micelles (HCT116 cells)
inhibited binding,CVYRSGWETYLKWWCRGAIW [Peptide 5],
inhibited binding,LKWWCRGAIWRDCKILVKTS [Peptide 7],

# Continued, molecule first:
Molecule,inhibition of binding of CD300f to sphingomyelin (SM) [1],internalization of peptide- or protein-functionalized micelles (HCT116 cells)
GWETYLKWWCRGAIWRDCKI [Peptide 6],inhibited binding,
"CD300f: whole CD300f protein, conjugated onto micelles and tested as CPP (protein, UniProt Q8TDQ1 20-290, looked up, conjugated onto micelles, whole CD300f protein, conjugated onto micelles and tested as CPP) CMRF35-like molecule 1: TQITGPTTVNGLERGSLTVQCVYRSGWETYLKWWCRGAIWRDCKILVKTSGSEQEVKRDRVSIKDNQKNRTFTVTMEDLMKTDADTYWCGIEKTGNDLGVTVQVTIDPAPVTQEETSSSPTLTGHHLDNRHKLLKLSVLLPLIFTILLLLLVAASLLAWRMMKYQQKAAGMSPEQVLQPLEGDLCYADLTLQLAGTSPQKATTKLSSAQVDQVEVEYVTMASLPKEDISYASLTLGAEDQEPTYCNMGHLSSHLPGRGPEEPTEYSTISRP",,better CPPs than the ones currently available in the market
